Structures are written as SMILES.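 Interpolation was linear, between the two tested concentrations surrounding the appropriate level; five concentrations were tested over 48 hours in 96-well plates. The concentration for 50% growth inhibition is given as GI50. The concentration for full growth arrest is given as TGI.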

Seven compounds from PubChem BioAssay (NCI) can be followed below.

Some test systems named below: SK-OV-3 ovarian; RXF 393 renal; OVCAR-3 ovarian; CAKI-1 renal; KM12 colon; MOLT-4 leukemia; UACC-62 melanoma; HT29 colon; SN12C renal.
What all share (assay): NCI anticancer screen, dose series, 48 h

As to `C[C@]12CC[C@@H]3c4cc(O)c(O)cc4CC[C@H]3[C@@H]1CC[C@@H]2O`, the GI50 in the experiment with SK-OV-3 ovarian was 4.19 µM; in the experiment with RXF 393 renal, 2.44 µM; with OVCAR-3 ovarian, 2.77 µM; in the experiment on CAKI-1 renal, 3.83 µM; in the experiment with KM12 colon, 8.23 µM; in the experiment on MOLT-4 leukemia, 3.51 µM. Further, the GI50 is 3.9 µM in the experiment on UACC-62 melanoma, 27.2 µM with HT29 colon and 6.21 µM in the experiment with SN12C renal. The TGI in the experiment with SK-OV-3 ovarian was 61.8 µM; in the experiment with RXF 393 renal it was 19 µM; in the experiment on OVCAR-3 ovarian, over 31.3 µM; in the experiment with CAKI-1 renal, over 88.9 µM; with KM12 colon it was 22.3 µM; in the experiment with MOLT-4 leukemia, 77.2 µM. The TGI is 29.1 µM in the experiment with UACC-62 melanoma, 61.3 µM in the experiment on HT29 colon and over 100 µM with SN12C renal.

Turning to `CC(C)(C)[Si](C)(C)OC1[C@@H](O[Si](C)(C)C(C)(C)C)[C@@H](CNC(=O)NC(=O)CF)O[C@H]1n1cnc2c(NC(=O)Nc3ccccc3)ncnc21` (stereo partly drawn), the GI50 was over 50 µM in the experiment with SK-OV-3 ovarian; 1.35 µM with RXF 393 renal; 11.1 µM in the experiment with OVCAR-3 ovarian; 27.3 µM in the experiment with CAKI-1 renal; 9.36 µM in the experiment on KM12 colon; 4.19 µM in the experiment with MOLT-4 leukemia. The GI50 in the experiment with UACC-62 melanoma is 31.2 µM; in the experiment with HT29 colon, 7.35 µM; in the experiment with SN12C renal it was 3 µM. For the same compound, the TGI with SK-OV-3 ovarian is over 50 µM; in the experiment on RXF 393 renal it was 4.57 µM; with OVCAR-3 ovarian, 23.4 µM; in the experiment with CAKI-1 renal it was over 50 µM; in the experiment with KM12 colon, 38.3 µM; in the experiment on MOLT-4 leukemia, 43.7 µM. Besides, the values for the TGI in the experiment on UACC-62 melanoma, in the experiment with HT29 colon and with SN12C renal were over 50 µM, 25.9 µM and 13.2 µM, respectively.

As to `Clc1ccc(Nc2ccnc(N3CCN(c4ccnc5cc(Cl)ccc45)CC3)n2)cc1`, the GI50 in the experiment with SK-OV-3 ovarian was 3.28 µM; with RXF 393 renal, 2.35 µM; with OVCAR-3 ovarian it was 2.93 µM; with CAKI-1 renal, 2.47 µM; with KM12 colon it was 3.04 µM; in the experiment with MOLT-4 leukemia, 2.94 µM. For the same compound, the results for the GI50 with UACC-62 melanoma, in the experiment with HT29 colon and in the experiment with SN12C renal were 1.95 µM, 2.03 µM and 3 µM, respectively. Also, the TGI is 44.7 µM in the experiment on SK-OV-3 ovarian; 7.65 µM with RXF 393 renal; 9.87 µM in the experiment with OVCAR-3 ovarian; 15.6 µM in the experiment with CAKI-1 renal; 11.5 µM with KM12 colon; 9.97 µM with MOLT-4 leukemia. For the same compound, the TGI was 6.97 µM in the experiment with UACC-62 melanoma, 4.88 µM in the experiment on HT29 colon and 28.6 µM with SN12C renal.

`Cn1cc(C2=C(c3c4n(c5ccccc35)CCC(CN)C4)C(=O)NC2=O)c2ccccc21` (stereo not drawn): the GI50 in the experiment with SK-OV-3 ovarian was 4.11 µM; with RXF 393 renal, 3.01 µM; in the experiment on OVCAR-3 ovarian it was 3.58 µM; in the experiment with CAKI-1 renal it was 3.91 µM; in the experiment with KM12 colon it was 3.42 µM; in the experiment with MOLT-4 leukemia, 2.19 µM. For the same compound, the GI50 with UACC-62 melanoma was 3 µM; with HT29 colon, 2.67 µM; in the experiment with SN12C renal it was 2.72 µM. For the same compound, the TGI with SK-OV-3 ovarian turned out to be 9.16 µM; with RXF 393 renal, 6.47 µM; in the experiment on OVCAR-3 ovarian, 7.63 µM; with CAKI-1 renal, 8.75 µM; in the experiment with KM12 colon it was 6.92 µM; in the experiment with MOLT-4 leukemia it was 6.73 µM. In addition, the TGI was 6.21 µM in the experiment on UACC-62 melanoma, 5.95 µM with HT29 colon and 6.56 µM with SN12C renal.

Consider `C=C1C(=O)O[C@H]2[C@H]1CC/C(C=Nc1c(N)cc(C(F)(F)F)cc1C(F)(F)F)=C\CC[C@@]1(C)O[C@@H]21`, for which the GI50 in the experiment on SK-OV-3 ovarian is 3.26 µM; in the experiment on RXF 393 renal, 1.24 µM; in the experiment with OVCAR-3 ovarian, 1.41 µM; in the experiment with CAKI-1 renal, 1.49 µM; in the experiment on KM12 colon it was 1.99 µM; in the experiment with MOLT-4 leukemia, 0.517 µM. Also, the GI50 in the experiment with UACC-62 melanoma was 1.28 µM; with HT29 colon, 1.13 µM. For the same compound, the TGI in the experiment with SK-OV-3 ovarian was 11.5 µM; with RXF 393 renal it was 2.74 µM; in the experiment with OVCAR-3 ovarian, 2.86 µM; in the experiment on CAKI-1 renal, 2.98 µM; with KM12 colon, 4.74 µM; in the experiment on MOLT-4 leukemia, over 100 µM. In addition, the TGI came out at 2.99 µM in the experiment with UACC-62 melanoma and 3.1 µM in the experiment on HT29 colon.

`CCOC(=O)NC/C=C/COC1CCCCO1` (stereo not drawn): the TGI in the experiment with SK-OV-3 ovarian, in the experiment on RXF 393 renal, with CAKI-1 renal, in the experiment with KM12 colon, in the experiment on MOLT-4 leukemia and with UACC-62 melanoma was over 100 µM throughout. This compound also registered a TGI with SN12C renal of over 100 µM.

Take `Cc1ccc2c(c1)c(Sc1ccc(C(=O)NO)cc1)c1n2CN(C)CC1`: the GI50 was 1.77 µM in the experiment with SK-OV-3 ovarian; 1.74 µM in the experiment on RXF 393 renal; 1.93 µM in the experiment with OVCAR-3 ovarian; 3.87 µM with CAKI-1 renal; 1.71 µM in the experiment on KM12 colon; 2.05 µM in the experiment on MOLT-4 leukemia. Further, the results for the GI50 in the experiment on UACC-62 melanoma, with HT29 colon and with SN12C renal were 1.51 µM, 2.53 µM and 2.28 µM, respectively. Besides, the TGI in the experiment with SK-OV-3 ovarian is 3.8 µM; with RXF 393 renal it was 5.86 µM; in the experiment with OVCAR-3 ovarian, 5.63 µM; in the experiment with CAKI-1 renal, 13.9 µM; in the experiment with KM12 colon it was 3.5 µM; in the experiment on MOLT-4 leukemia it was 6.98 µM. For the same compound, the TGI amounted to 3.25 µM in the experiment with UACC-62 melanoma, 8.38 µM with HT29 colon and 6.79 µM in the experiment with SN12C renal.
